This note sets out measurements from patent US5661153A, “1-arylpyrimidine derivatives and pharmaceutical use thereof” (Japan Energy Corporation, priority 1994, dated 1997).

Where two headings read alike, the source gives them in different places.

Data set [1] concerns picryl chloride-induced type IV allergy. Nature of the data set: Inhibiting effect on a picryl chloride-induced type IV allergy (1-aryluracil derivatives). The format is in vivo, male ICR strain mice. The following applies: Mus musculus, po, read-out: Percent Inhibition; for inhibition in vivo at 100 mg/kg: 100 mg/kg orally twice (just after induction and 16 hours after). As to the method:
(§1) The abdomen of 6-weeks old male ICR strain mice was shaven and 0.1 ml of a 7% picryl chloride solution in acetone was applied to the epithelium of the abdomen for immunization. After one week, 5 μl of a 1% picryl chloride solution in olive oil was applied to both sides of the left auricula to induce an allergy reaction. A given amount of a test substance was suspended in a 0.5% CMC-Na solution and the resulting suspension was administered orally to each mouse twice, i.e., just after the induction and 16 hours after. The thickness of the left auricula was measured both before the induction and 24 hours after.
(§2) The difference between the thickness of the left auricula before the induction and the value measured 24 hours after was calculated as the increase in thickness. Using a reference group to which only a 0.5% CMC-Na solution was administered orally, a reference value for the increase in thickness was obtained. The percent inhibition was determined as 100% when the increase in thickness was zero and as 0% when the increase in thickness was equal to the reference value. On the basis of these criteria, the percent inhibition of each test substance was calculated at varying doses.

Data set [2] in a line: Toxicity Test (Experimental Example 1, 1-aryluracil derivatives). It is filed as in vivo, male SD rats. To be noted: 1,000 mg/kg orally once a day for 2 consecutive weeks. The method, then: (§3) A test substance was suspended in a 0.5% CMC-Na solution and administered orally to 6-weeks old male SD rats once a day at a dose of 1,000 mg/kg for 2 consecutive weeks. The weight of each rat was measured both before the administration and every day during the administration. A given amount of blood was collected on the day after the end of the administration period and examined. Collected urine was also examined. In addition, organs were checked for any aberrations by autopsy.

Data set [3] relates to picryl chloride-induced type IV allergy. The experiment in a line: Inhibiting effect on a picryl chloride-induced type IV allergy (3-arylpurine derivatives). The format is in vivo, male ICR strain mice. The following applies: left auricula thickness at 24 hours. The method, then:
as §1, §2

The nature of data set [4]: Toxicity Test (Experimental Example 2, 3-arylpurine derivatives). It is filed as in vivo, male SD rats. The following applies: 1,000 mg/kg orally once a day for 2 consecutive weeks. The method, then: as §3
Data set [5] relates to passive cutaneous anaphylaxis (PCA) reaction. Nature of the data set: Inhibiting effect on a 48 hour PCA reaction (test method for compound prepared in Example 1). To be noted: dye leakage. It is filed as in vivo, male Wistar strain rats. As to the method: (§4) Eight-weeks old male Wistar strain rats were immunized by subcutaneously injecting 0.05 ml of 50-fold diluted DNP-Ascaris antiserum (titer=1:64) at four positions on the dorsum. Forty-eight hours after the immunization, 1 ml of a 0.5% Evans blue solution containing 1 mg of DNP-Ascaris antigen was administered into a tail vein to induce a PCA reaction. Thirty minutes after the induction, the rats were bled to death and blue circular parts appearing at the immunized positions were excised. The dye was extracted from the blue circular parts with ethyl acetate and the amount of the dye leakage was determined. A test substance was suspended in a 0.5% CMC-Na solution and administered orally to each rat 1 hour before the induction.
(§5) Using a reference group to which only a 0.5% CMC-Na solution was administered orally, a reference value for the amount of dye leakage was obtained. The percent inhibition was determined as 100% when the amount of dye leakage was zero and as 0% when the amount of dye leakage was equal to the reference value. On the basis of these criteria, the percent inhibition of each test substance was calculated at varying doses.

For data set [6] the test system is unchanged. The experiment in a line: Inhibiting effect on a 48 hour PCA reaction (test method for compound prepared in Example 22). The format is in vivo, male Wistar strain rats. The following applies: 100 mg/kg orally 30 minutes before the induction; dye leakage. As to the method:
as §4, with “0.1” for “0.05”, “700-fold” for “50-fold”, “(titer=1:1024)” for “(titer=1:64)”, “two” for “four”, “pedal” for “tail”, “at a dose of 100 mg/kg 30 minutes” for “1 hour”
as §5

The mark [7] stands for this setting: 10 mg/kg orally twice (just after induction and 16 hours after), left auricula thickness at 24 hours.
The mark [8] stands for this setting: left auricula thickness at 24 hours.
The mark [9] stands for this setting: 10 mg/kg orally twice (just after induction and 16 hours after).
Where [10] appears, read: 100 mg/kg orally twice (just after induction and 16 hours after).

In the case of `Cn1c(=O)c(NC(=O)c2cc(O)cc(O)c2)c(N)n(-c2ccccc2)c1=O` [Example 14, 6-Amino-5-(3,5-dihydroxyphenyl)carboxyamido-3-methyl-1-phenyluracil], the inhibition in vivo at 10 mg/kg in data set [1] (setting [7]) is 45%.

As for `Cn1c(=O)c(NC(=O)c2ccc(=O)oc2)c(N)n(-c2ccccc2)c1=O` [Example 52, 6-Amino-3-methyl-5-(2-oxo-2H-pyran-5-yl)carboxyamido-1-phenyluracil], the inhibition in vivo at 10 mg/kg in data set [1] (setting [7]) is 19%. Besides, the inhibition in vivo at 100 mg/kg in data set [1] (setting [8]) is 39%.

`CC(=O)Oc1cc(OC(C)=O)cc(C(=O)Nc2c(N)n(-c3ccccc3)c(=O)n(C)c2=O)c1` [Example 7, 6-Amino-5-(3,5-diacetoxyphenyl)carboxyamido-3-methyl-1-phenyluracil]: the inhibition in vivo at 10 mg/kg in data set [1] (setting [7]) was 65%. Further, in data set [2], the autopsy entry was “no abnormality was observed”, the blood examination entry is given as “no abnormality was observed”, the “death during the administration period” value was “no rat died” and the urine examination result is reported as “no abnormality was observed”. Moreover, the weight change result in data set [2] is recorded as “no abnormality was observed”.

As for `COc1ccc(O)c(C(=O)Nc2c(N)n(-c3ccccc3)c(=O)n(C)c2=O)c1` [Example 53, 6-Amino-5-(2-hydroxy-5-methoxyphenyl)carboxyamido-3-methyl-1-phenyluracil], the inhibition in vivo at 10 mg/kg in data set [1] (setting [7]) is 45%. In data set [2], the autopsy result is reported as “no abnormality was observed”, the blood examination result was “no abnormality was observed”, the “death during the administration period” value was “no rat died” and the urine examination result was “no abnormality was observed”. Also, the weight change entry in data set [2] is “no abnormality was observed”.

Turning to `Cn1c(=O)c(NC(=O)c2cc(C(C)(C)C)c(O)c(C(C)(C)C)c2)c(N)n(-c2ccc(F)cc2)c1=O` [Example 2, 6-Amino-5-(3,5-di-tert-butyl-4-hydroxyphenyl)carboxyamido-1-(4-fluorophenyl)-3-methyluracil], in data set [1] (3 mg/kg orally twice (just after induction and 16 hours after), left auricula thickness at 24 hours), the inhibition in vivo at 3 mg/kg was determined as 38%.

`Cn1c(=O)c2[nH]c(-c3ccc(O)c(O)c3)nc2n(-c2ccccc2)c1=O` [Example 78, 8-(3,4-Dihydroxyphenyl)-1-methyl-3-phenylpurine-2,6-dione]: the “Percent Inhibition” value in data set [3] (setting [9]) is 35%.

Consider `Cn1c(=O)c2[nH]c(-c3cc(C(C)(C)C)c(O)c(C(C)(C)C)c3)nc2n(-c2ccccc2)c1=O` [Example 74, 8-(3,5-Di-tert-butyl-4-hydroxyphenyl)-1-methyl-3-phenylpurine-2,6-dione], for which, in data set [3] (setting [9]), the “Percent Inhibition” value was 38%. In data set [4], the autopsy result was “no abnormality was observed”, the blood examination entry is “no abnormality was observed”, the “death during the administration period” value is on record as “no rat died” and the urine examination entry is “no abnormality was observed”. In addition, in data set [4], the weight change result is recorded as “no abnormality was observed”.

Take `CC1CCC(C(=O)Nc2c(N)n(-c3ccccc3)c(=O)n(C)c2=O)CC1` (stereo not drawn) [Example 60, 6-Amino-3-methyl-5-(4-methylcyclohexyl)carboxyamido-1-phenyluracil]: the inhibition in vivo at 10 mg/kg in data set [1] (setting [7]) was determined as 40%.

Turning to `CC(=O)Oc1cc(-c2nc3c([nH]2)c(=O)n(C)c(=O)n3-c2ccccc2)cc(OC(C)=O)c1OC(C)=O` [Example 80, 1-Methyl-3-phenyl-8-(3,4,5-triacetoxyphenyl)purine-2,6-dione], the “Percent Inhibition” value in data set [3] (setting [9]) was 37%; in data set [3] (setting [10]) it was 53%.

For the compound `Cn1c(=O)c(NC(=O)c2cc(=O)cco2)c(N)n(-c2ccccc2)c1=O` [Example 51, 6-Amino-3-methyl-5-(4-oxo-4H-pyran-2-yl)carboxyamido-1-phenyluracil], in data set [1] (setting [7]), the inhibition in vivo at 10 mg/kg worked out at 45%.

For `CC(=O)Oc1ccc(C(=O)Nc2c(N)n(-c3ccccc3)c(=O)n(C)c2=O)cc1OC(C)=O` [Example 34, 6-Amino-5-(3,4-diacetoxyphenyl)carboxyamido-3-methyl-1-phenyluracil], the inhibition in vivo at 10 mg/kg in data set [1] (setting [7]) was determined as 33%. For the same compound, in data set [1] (setting [8]), the inhibition in vivo at 100 mg/kg is 52%.

For the compound `Cn1c(=O)c(NC(=O)c2cc(C(C)(C)C)c(O)c(C(C)(C)C)c2)c(N)n(-c2ccccc2)c1=O` [Example 1, 6-Amino-5-(3,5-di-tert-butyl-4-hydroxyphenyl)carboxyamido-3-methyl-1-phenyluracil], the inhibition in vivo at 10 mg/kg in data set [1] (setting [7]) stood at 54%. The “Percent Inhibition” value in data set [5] (3 mg/kg orally 1 hour before the induction) came out at 33%; in data set [5] (30 mg/kg orally 1 hour before the induction), 49%.

Regarding `Cn1c(=O)c(NC(=O)C2(C)CCCCC2)c(N)n(-c2ccccc2)c1=O` [Example 61, 6-Amino-3-methyl-5-(1-methylcyclohexyl)carboxyamido-1-phenyluracil], the inhibition in vivo at 100 mg/kg in data set [1] (setting [8]) amounted to 32%.

Regarding `Cc1ccc(-n2c(N)c(NC(=O)c3cc(C(C)(C)C)c(O)c(C(C)(C)C)c3)c(=O)n(C)c2=O)cc1` [Example 3, 6-Amino-5-(3,5-di-tert-butyl-4-hydroxyphenyl)carboxyamido-3-methyl-1-(4-methylphenyl)uracil], the inhibition in vivo at 10 mg/kg in data set [1] (setting [7]) worked out at 33%.

Consider `CC(=O)Oc1cc(OC(C)=O)cc(C(=O)Nc2c(N)n(-c3ccc(F)cc3)c(=O)n(C)c2=O)c1` [Example 8, 6-Amino-5-(3,5-diacetoxyphenyl)carboxyamido-1-(4-fluorophenyl)-3-methyluracil], for which the inhibition in vivo at 10 mg/kg in data set [1] (setting [7]) amounted to 43%.

Regarding `CCCn1c(=O)c(NC(=O)c2cc(OC(C)=O)cc(OC(C)=O)c2)c(N)n(-c2ccccc2)c1=O` [Example 11, 6-Amino-5-(3,5-diacetoxyphenyl)carboxyamido-1-phenyl-3-propyluracil], the inhibition in vivo at 100 mg/kg in data set [1] (setting [8]) worked out at 30%.

For `CC(=O)Oc1cc(C(=O)Nc2c(N)n(-c3ccccc3)c(=O)n(C)c2=O)cc(OC(C)=O)c1OC(C)=O` [Example 22, 6-Amino-3-methyl-1-phenyl-5-(3,4,5-triacetoxyphenyl)carboxyamidouracil], in data set [1] (setting [7]), the inhibition in vivo at 10 mg/kg stood at 48%. The inhibition in vivo at 100 mg/kg in data set [1] (setting [8]) was 72%. For the same compound, in data set [6], the “Percent Inhibition” value is reported as 50%.

As for `COc1ccc(-n2c(N)c(NC(=O)c3cc(OC)ccc3OC(C)=O)c(=O)n(C)c2=O)cc1` [Example 55, 5-(2-Acetoxy-5-methoxyphenyl)carboxyamido-6-amino-1-(4-methoxyphenyl)-3-methyluracil], in data set [1] (setting [8]), the inhibition in vivo at 100 mg/kg was found to be 35%.

In the case of `COc1ccc(-n2c(N)c(NC(=O)c3cc(C(C)(C)C)c(O)c(C(C)(C)C)c3)c(=O)n(C)c2=O)cc1` [Example 4, 6-Amino-5-(3,5-di-tert-butyl-4-hydroxyphenyl)carboxyamido-1-(4-methoxyphenyl)-3-methyluracil], in data set [1] (setting [7]), the inhibition in vivo at 10 mg/kg was 35%.

Consider `C[C@]12C=CC(=O)C=C1CC[C@@H]1[C@@H]2[C@@H](O)C[C@@]2(C)[C@H]1CC[C@]2(O)C(=O)CO` [Prednisolone, prednisolone, reference compound], for which, in data set [1] (24 h), the inhibition in vivo at 10 mg/kg stood at 77%. Moreover, the “Percent Inhibition” value in data set [3] (setting [9]) is given as 67%.

For the compound `COc1ccc(-n2c(=O)n(C)c(=O)c3[nH]c(-c4cc(C(C)(C)C)c(O)c(C(C)(C)C)c4)nc32)cc1` [Example 75, 8-(3,5-Di-tert-butyl-4-hydroxyphenyl)-3-(4-methoxyphenyl)-1-methylpurine-2,6-dione], the “Percent Inhibition” value in data set [3] (setting [9]) was 16%; in data set [3] (setting [10]) it was 34%.
